Experimental data as given in PMC10845951, “Characterization of a selective, iron-chelating antifungal compound that disrupts fungal metabolism and synergizes with fluconazole” (Microbiology Spectrum, 2024).

How the values were obtained:
[1] = system: HEK-293 cells; assay: CellTiter-Glo assay for human cells; format: cell-based; conditions: HEK293, HEK-293, 24 h
Procedure: (§1) HEK-293 and HS-5 cells were stored in liquid nitrogen, in freezing medium [50% Dulbecco’s Modified Eagle’s Medium (DMEM), 40% fetal bovine serum, and 10% DMSO] for long-term storage. For experimental use, the cells were thawed and then cultured using DMEM containing 10% […] and 1% penicillin/streptomycin.
(§2) The 1:1 serial dilutions of the compounds were performed in 96-well plates to obtain a final concentration range (three technical replicates each) equivalent to 0.781, 1.562, 3.125, 6.25, 12.5, 25, 50, and 100 µM. […] The plates were placed inside plastic bags to prevent evaporation and incubated at 37°C, 5% CO2 for 24 h. One hundred microliters of CellTiter-Glo 2.0 (Promega, G9243) was added to each well and then measured for luminescence using a Synergy 2 Gen 5 plate reader from BioTek.

[2] = system: HS-5 cells; assay: CellTiter-Glo assay for human cells; format: cell-based; conditions: HS5, HS-5, 24 h
Procedure: as §1, §2

[3] = system: C. glabrata WT (10028) cells; assay: XTT metabolic assay; format: cell-based, Candida glabrata; conditions: 0.625, 2.5, 10 µM; 6 and 24 h
[4] = Nano liquid chromatography-mass spectrometry metal binding
Procedure: Liquid chromatography-mass spectrometry (LC-MS)-grade water, acetonitrile, and formic acid (≥99%) were purchased from VWR (Radnor, PA, USA). […] Metal solutions containing 2 µM, 4 µM, 6 µM, and 10 µM CaCl2, CuCl2, FeCl2, FeCl3, MgCl2, MnCl2, and ZnCl2 in 0.1% formic acid in LC-MS-grade water (hereby referred to as 0.1% formic acid) were made. A stock solution of terpyridine (100 µM) in 0.1% formic acid was made and added to the metal solutions to a final concentration of 10 µM terpyridine. All metal solutions in addition to a blank sample containing 10 µM terpyridine in 0.1% formic acid were subjected to nano liquid chromatography (nanoLC-MS) analysis. nanoLC-MS was performed using an nLC EASY 1000 pump connected to a Q-Exactive mass spectrometer (MS) with a Nanospray Flex ion source (all from Thermo Fisher Scientific, Waltham, MA, USA). For separation, a 50 µm (inner diameter) × 5 cm in-house packed nanoLC column containing 2.6-µm Accucore C18 particles (80 Å) was used. The column was packed according to the protocol from Berg et al. ([58]). Trapping of analytes prior to separation was performed online using a 2-cm Acclaim PepMap with 3-µm particles (100 Å). All columns and packing materials were obtained from Thermo Fisher Scientific. The mobile phases consisted of 0.1% formic acid (A) and 90/10/0.1 acetonitrile/water/formic acid (vol/vol/vol) (B).

## c1ccc(-c2cccc(-c3ccccn3)n2)nc1 [2,2′:6′,2′′-terpyridine]
[1]
  EC50: 37.1 ± 6.94 µM
[2]
  EC50: 28.7 ± 8.32 µM
[3]
  reduction of XTT (mitochondrial activity): significantly inhibited the reduction of XTT
[4]; 2-10 µM metal, 10 µM compound
  binding of Fe^2+: preferentially binds Fe^2+ in a concentration-dependent manner
  binding of Fe^3+: much lesser extent than Fe^2+
[4]; even at high concentrations
  binding of Cu^2+: hardly bind
  binding of Zn^2+: hardly bind
